Laboratory results reported in article PMC6828666, “Discovery of holoenzyme-disrupting chemicals as substrate-selective CK2 inhibitors” (Scientific Reports, 2019).

Key:
CK2α = CK2α (Homo sapiens, UniProt P68400); test: SPR binding studies on captured GST-CK2α; settings: surface plasmon resonance
Description: SPR competition studies (Fig. 2i) were performed using a BIAcore 3000 instrument (BIAcore AB) equipped with a CM5 sensor chip (BIAcore AB). After activation with a solution of N-hydroxysuccinimide and N-ethyl-N-(dimethylaminopropyl)carbodiimide hydrochloride (coupling solution BIAcore AB), the anti-GST antibody diluted at 30 μg/ml in 10 mM acetate buffer pH 5.0 was injected at a flow rate of 5 μL/min for 7 min. All the surfaces were blocked with a 3 min injection at 10 μL/min of 1 M ethanolamine, pH 8.0. GST-CK2α (50 μg/ml) was immobilized on the surface at a flow rate of 5 μL/min in HBS (10 mM Hepes pH 7.3, 0.15 M NaCl, 3 mM EDTA, 0.005% polysorbate 20). MBP-CK2β diluted at 50 μg/ml in HBS buffer was injected over the surface at a flow rate of 5 μL/min in presence of various compound 1 concentration. Regeneration of the surfaces was achieved by injection of 10 mM glycine-HCl pH 2.2. SPR binding studies (Supplementary Fig. S7) were performed using a Reichert SR7000DC instrument optical biosensor (Reichert Technologies) equipped with a CMD500m sensor chip obtained from XanTec Bioanalytics. CK2α was immobilized by a capturing approach using a monoclonal anti-GST antibody (27 kDa, Clone GST-R 6G9 produced in rat, SAB4200055 Sigma Aldrich). Prior to use, the anti-GST antibodies were purified twice by micro dialysis at 4 °C (Membrane: dialysis tubing benzoylated, 9 mm, D2272-5FT) in 10 mM sodium acetate, pH = 5. Anti-GST antibodies were immobilized using amine-coupling chemistry at 12 °C. The surfaces of all two flow cells were activated for 7 min with a 1:1 mixture of 0.1 M NHS (N-hydroxysuccinimide) and 0.1 M EDC (3-(N,N-dimethylamino) propyl-N-ethylcarbodiimide) at a flow rate of 10 μL/min. The antibody at a concentration of 30 μg/mL in 10 mM sodium acetate, pH 5.0, was immobilized at a density of 2000 RU on flow cell 2; flow cell 1 was left blank to serve as a reference surface. All the surfaces were blocked with a 3 min injection at 10 μL/min of 1 M ethanolamine, pH 8.0. GST tagged CK2α at a concentration of 50 μg/mL in 10 mM HEPES, 150 mM NaCl, 3 mM EDTA, 0.005% (v/v) polysorbate 20, pH = 7.4 was captured at a density of 900 RU on flow cell 2. In order to collect kinetic binding data, analytes in 10 mM HEPES, 150 mM NaCl, 3 mM EDTA, 0.005% (v/v) polysorbate 20, 1% DMSO (v/v), 100 μM ATP, pH = 7.4 were injected over the two flow cells at concentrations of 50, 25, 12.5, 6.25, 3.12, 1.56 μM at a flow rate of 25 μL/min and at a temperature of 25 °C. The complex was allowed to associate and dissociate for 120 s. Duplicate injections (in random order) of each sample and a buffer blank were flowed over the two surfaces. Affinities were obtained after treatments (DMSO calibration, blank and references subtractions) using the software Scrubber 2.0c.
Fig. S7. Binding kinetics of compounds 2-6 by surface plasmon resonance. For each compound, sensorgrams (black line) and global fits (orange line) are depicted with the corresponding chemical structure and the fitted kinetics parameters. Experiments show representative data of two identical repeats.

MDA-MB231 cells = test: Scratch wound cell migration assay; type: cell-based; settings: MDA-MB231, 40 μM
Description: Cells seeded at equal density were allowed to grow to confluence overnight. The Essen Bioscience WoundMaker^TM, an accessory for the IncuCyte Zoom®, was utilized to create Scratch-wounds of a standardized width (~600 μm). Cells were treated with the indicated inhibitors and imaged every 15 min for 44 h and the percentage of wound confluence was analyzed.
Fig. S10. […] MCF10A cells (a) or MDA-MB231 cells (b) were allowed to grow to confluence overnight. Wounds of a standardized width were created using the Essen Bioscience WoundMakerTM. […] Wound closure was monitored using the Essen IncuCyte Zoom live-cell microscopy incubator. Images were captured every 2 h for the duration of the experiment. Error bars represent the SEM of two biological replicates derived from technical triplicates.

[1] = target: T1, CK2 holoenzyme complexes in MCF10A cells (Homo sapiens, UniProt P68400); test: In situ proximity ligation assay (PLA); type: cell-based; settings: 50 μM, 3 h, DMSO control 16 ± 4
T1 construct: endogenous in cells; host or cells: MCF10A
T1 sequence (P68400 whole entry, one chain of several): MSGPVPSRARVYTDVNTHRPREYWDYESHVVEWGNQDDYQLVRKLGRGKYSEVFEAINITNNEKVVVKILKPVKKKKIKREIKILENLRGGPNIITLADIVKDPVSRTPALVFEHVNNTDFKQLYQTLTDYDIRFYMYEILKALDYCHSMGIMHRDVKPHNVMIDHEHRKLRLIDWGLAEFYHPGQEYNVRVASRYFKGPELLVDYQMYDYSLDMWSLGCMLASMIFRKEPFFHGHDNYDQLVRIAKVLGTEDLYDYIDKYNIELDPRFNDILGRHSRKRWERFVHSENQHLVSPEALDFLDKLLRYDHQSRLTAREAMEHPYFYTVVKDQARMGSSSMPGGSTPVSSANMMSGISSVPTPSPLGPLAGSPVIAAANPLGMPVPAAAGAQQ
Description: In situ PLAs were performed using a Duolink kit (Olink Bioscience, Uppsala, Sweden) according to the manufacturer’s instructions with few modifications. MCF10A cells were fixed in 4% paraformaldehyde for 10 min. The cells were then permeabilized with 0.1% Triton in Tris-buffered saline (TBS; 50 mM Tris, pH 7.6, 150 mM NaCl) and incubated with 100 mM glycine in phosphate-buffered saline (137 mM NaCl, 2.7 mM KCl, 10 mM Na2 HPO4, and 1.8 mM KH2 PO4, pH 7.4) for 20 min. Permeabilized cells were incubated overnight at 4 °C with primary antibodies diluted as follows: mouse CK2α 1:250 and rabbit CK2β 1:50. Cells were washed three times in TBS with 0.05% Tween-20 for 5 min each with gentle agitation. Secondary antibodies conjugated with oligonucleotides, PLA probe anti-mouse MINUS and PLA probe anti-rabbit PLUS, were added to the cells and incubated for 90 min at 37 °C in a humidity chamber. Finally, after ligation and amplification steps, cells were counterstained with the DNA-binding dye Hoechst and Phaloïdine-488 for actin staining (Molecular Probes, Thermo Fisher Scientific, Courtaboeuf, France). Images were observed using a Zeiss Apotome microscope and analyzed using a Zen Pro imaging software (Zeiss, Oberkochen, Germany). Quantification was performed using the BlobFinder software (V3.2, Swedish University of Agricultural Sciences, Uppsala University)[67]. […]

CK2α, sequence (P68400 whole entry): as the sequence (P68400 whole entry, one chain of several) above

Row | SMILES | Kd (CK2α) | cell migration / wound closure (MDA-MB231 cells) | CK2 holoenzyme complexes (PLA dots) [1]
1 | CS(=O)(=O)NCCN1CCC(COC(=O)c2c[nH]c3ccccc23)CC1 [Compound 3, (1-(2-(Methylsulfonamido)ethyl)piperidin-4-yl)methyl 1H-indole-3-carboxylate] | 54 ± 5 µM | not affected | 
2 | O=C(OCC1CCN(CCNS(=O)(=O)c2ccccc2)CC1)c1c[nH]c2ccccc12 [Compound 4, (1-(2-(Phenylsulfonamido)ethyl)piperidin-4-yl)methyl 1H-indole-3-carboxylate] | 41 ± 5 µM |  | 8 ± 2 dots/cell
3 | COc1[nH]c2ccc(F)cc2c1C(=O)OCC1CCN(CCNS(=O)(=O)c2ccccc2)CC1.Cl [Compound 6] |  | completely abrogated | 6 ± 2 dots/cell
